Assay results: PMC4546402, “Structural Model of the Bilitranslocase Transmembrane Domain Supported by NMR and FRET Data” (PLoS ONE, 2015)
Each block holds one compound with its values, some of them ahead of it. Residues, ends and D or L forms follow the SMILES beside them. No end group written: not given here.

Experiments:
bilitranslocase (BTL) = conditions: ref [10]; cited from earlier work
TM3:TM3 = experiment: FRET titration of Atto488/Atto594-labelled peptides in SDS micelles, TM3:TM3 pair; format: binding; conditions: Atto488 donor/Atto594 acceptor, SDS micelle, TM3 with TM3, ratio of donor emission at 523 nm to acceptor emission at 627 nm, read-out: dissociation constant Kd
TM2:TM2 = experiment: FRET titration of Atto488/Atto594-labelled peptides in SDS micelles, TM2:TM2 pair; format: binding; conditions: Atto488 donor/Atto594 acceptor, SDS micelle, TM2 with TM2, ratio of donor emission at 523 nm to acceptor emission at 627 nm, read-out: dissociation constant Kd

Compound: O=C(O)c1cccnc1 [nicotinic acid]
allosteric effect on BTL (bilitranslocase (BTL)): positive allosteric effectors, inducing the BTL into its high-affinity state

Kd (TM3:TM3): 191 µM
Compound: GSVQCAGLISLPIAIEFTYKKKK [TM3:TM3]

Kd (TM2:TM2): 71.9 µM
Compound: CC[C@H](C)[C@H](NC(=O)[C@H](C)NC(=O)[C@H](CCCCN)NC(=O)[C@H](CS)NC(=O)[C@H](CC(C)C)NC(=O)CNC(=O)[C@H](CO)NC(=O)[C@@H](NC(=O)CNC(=O)[C@H](C)NC(=O)[C@H](CO)NC(=O)[C@H](Cc1ccccc1)NC(=O)[C@@H]1CCCN1C(=O)[C@H](CO)NC(=O)[C@H](CCC(N)=O)NC(=O)[C@H](CC(C)C)NC(=O)[C@@H](NC(=O)[C@H](C)NC(=O)[C@@H](NC(=O)[C@H](Cc1ccccc1)NC(=O)[C@H](CC(C)C)NC(=O)[C@H](CS)NC(=O)[C@H](Cc1ccccc1)NC(=O)[C@H](CO)NC(=O)[C@@H](N)CO)C(C)C)[C@@H](C)O)C(C)C)C(=O)N[C@@H](CC(C)C)C(=O)N[C@@H](CC(C)C)C(=O)N[C@@H](CCCCN)C(=O)N[C@@H](CCCCN)C(=O)N[C@@H](CCCCN)C(=O)N[C@@H](CCCCN)C(=O)O [TM2:TM2] (H-SSFCLFVATLQSPFSAGVSGLCKAILLKKKK-OH)

Compound: C=CC1=C(C)/C(=C/c2[nH]c(Cc3[nH]c(/C=C4\NC(=O)C(C)=C4C=C)c(C)c3CCC(=O)O)c(CCC(=O)O)c2C)NC1=O [bilirubin]
allosteric effect on BTL (bilitranslocase (BTL)): positive allosteric effectors, inducing the BTL into its high-affinity state
effect on conversion between the two metastable BTL conformers (bilitranslocase (BTL)): accelerated
